# Results as given in US5164388A, “Heterocyclic peptide renin inhibitors” (Abbott Laboratories, priority 1991, dated 1992).
# Target: T1, human renal renin (Homo sapiens, UniProt P00797)
# T1 construct: human renal renin, free from acid proteolytic activity; from tissue
# T1 sequence (P00797 67-406): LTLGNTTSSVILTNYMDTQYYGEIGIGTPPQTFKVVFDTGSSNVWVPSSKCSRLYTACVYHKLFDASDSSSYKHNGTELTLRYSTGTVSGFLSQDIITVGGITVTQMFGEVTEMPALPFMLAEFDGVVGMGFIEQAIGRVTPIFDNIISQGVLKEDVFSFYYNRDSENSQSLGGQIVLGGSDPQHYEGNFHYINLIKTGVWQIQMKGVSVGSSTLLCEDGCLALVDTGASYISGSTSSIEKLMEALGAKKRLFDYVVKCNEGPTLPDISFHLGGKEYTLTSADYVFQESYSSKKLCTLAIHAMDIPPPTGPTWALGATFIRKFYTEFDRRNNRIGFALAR
# Assay: Inhibition of human renal renin in vitro (angiotensin I formed, radioimmunoassay)
# Format: biochemical
# Details: human angiotensinogen substrate, 37 degrees C., pH 6.0
# Protocol: The novel compounds of the present invention are also useful for treating congestive heart failure. […] At the end of the incubation, the amount of angiotensin I formed is measured by radioimmunoassay and the molar concentration required to cause 50% inhibition, expressed as the IC50, is calculated.
row,Compound,IC50
1,"CCCCC(C(=O)N[C@@H](CC1CCCCC1)[C@@H](O)[C@@H](O)CC(C)C)N1CCCC(Cc2ccccc2)C1=O (mixture of isomers) [Example 56A, 2(RS)-(3-Benzyl-2-oxo-1-piperidin-1-yl)-hexanoic acid Amide of 2(S)-Amino-1-cyclohexyl-3(R),4(S)-dihydroxy-6-heptane]",410 nM
2,"CC(C)C[C@H](O)[C@H](O)[C@H](CC1CCCCC1)NC(=O)C(Cc1cnc[nH]1)N1CCC(Cc2ccccc2)(NC(=O)OCc2ccccc2)C1=O (single isomer, unassigned) [Example 63B]",15 nM
3,"CC(C)C[C@H](O)[C@H](O)[C@H](CC1CCCCC1)NC(=O)C(Cc1cnc[nH]1)N1CCC(Cc2ccccc2)(NC(=O)OCc2ccccc2)C1=O (single isomer, unassigned) [Example 63C]",4.5 nM
4,"CC(C)C[C@H](O)[C@H](O)[C@H](CC1CCCCC1)NC(=O)C(Cc1cnc[nH]1)N1CCC[C@@](Cc2ccccc2)(NC(=O)OCc2ccccc2)C1=O (single isomer, unassigned) [Example 87, (2R or 2S)-((3S)-(Benzyloxycarbonyl)amino)-3-phenylmethyl-2-oxo-1-piperidinyl)-3-(4-imidazolyl)propionic acid amide of (2S,3R,4S)-2-amino-1-cyclohexyl-3,4-dihydroxy-6-methylheptane]",1.4 nM
5,"CC(C)C[C@H](O)[C@H](O)[C@H](CC1CCCCC1)NC(=O)C(Cc1cnc[nH]1)N1CCC[C@](Cc2ccccc2)(NC(=O)OCc2ccccc2)C1=O (single isomer, unassigned) [Example 88, (2R or 2S)-((3R)-((Benzyloxycarbonyl)amino)-3-phenylmethyl-2-oxo-1-piperidinyl)-3-(4-imidazolyl)propionic acid amide of (2S,3R,4S)-2-amino-1-cyclohexyl-3,4-dihydroxy-6-methylheptane]",28 nM
6,"CCCCC(C(=O)N[C@@H](CC1CCCCC1)[C@@H](O)[C@@H](O)CC(C)C)N1CCN(c2ncccn2)CC1 (stereo partly drawn) [Example 12A, 2-(4-(2-Pyrimidyl)-piperazin-1-yl)-hexanoic acid Amide of 2(S)-Amino-1-cyclohexyl-3(R),4(S)-dihydroxy-6-methylheptane]",770 nM
7,"CCCCC(C(=O)N[C@@H](CC1CCCCC1)[C@@H](O)[C@@H](O)CC(C)C)N1CCC(Cc2ccccc2)CC1 (stereo partly drawn) [Example 13, 2-(4-Benzylpiperidin-1-yl)-hexanoic acid Amide of 2(S)-Amino-1-cyclohexyl-3(R),4(S)-dihydroxy-6-methylheptane]",430 nM
8,"CCCCC(C(=O)N[C@@H](CC1CCCCC1)[C@@H](O)[C@@H](O)CC(C)C)N1CCCC(Cc2ccccc2)C1 (stereo partly drawn) [Example 18, 2-(3-Benzylpiperidin-1-yl)-hexanoic acid Amide of 2(S)-Amino-1-cyclohexyl-3(R),4(S)-dihydroxy-6-methylheptane]",920 nM
9,"CCCCC(C(=O)N[C@@H](CC1CCCCC1)[C@@H](O)[C@@H](O)CC(C)C)N1CCCC(Cc2ccccc2)C1 (stereo partly drawn) [Example 20, 2(3-Benzylpiperidin-1-yl)-hexanoic acid Amide of 2(S)-Amino-1-cyclohexyl-3(R),4(S)-dihydroxy-6-methylheptane]",240 nM
10,CCCC[C@H](NC[C@@H](Cc1ccccc1)NC(=O)OCc1ccccc1)C(=O)OC [Example 21],62 nM
11,CCCC[C@@H](C(=O)OC)N(CC(=O)OCc1ccccc1)C[C@@H](Cc1ccccc1)NC(=O)OCc1ccccc1 [Example 22],300 nM
12,CCCC[C@@H](C(=O)N[C@@H](CC1CCCCC1)[C@@H](O)[C@@H](O)CC(C)C)N1CC(=O)N[C@H](Cc2ccccc2)C1 [Example 24],170 nM
13,"CCCCC(C(=O)N[C@@H](CC1CCCCC1)[C@@H](O)[C@@H](O)CC(C)C)N1CCN(Cc2ccccc2)CC1 (stereo partly drawn) [Example 32A, 2-(4-Benzyl-piperazin-1-yl)-hexanoic acid Amide of 2(S)-Amino-1-cyclohexyl-3(R),4(S)-dihydroxy-6-methylheptane]",810 nM
